The text below walks through data of patent publication US20160333419A1, “GENE SIGNATURES ASSOCIATED WITH SENSITIVITY TO MDM2 INHIBITORS” (DAIICHI SANKYO COMPANY, LIMITED, priority 2014, published 2016).

What all share (assay): Champions TumorGraft model, tumor growth inhibition
What all share (format): in vivo, mice

For one experiment, the system named is CTG-0203 Melanoma. Conditions: 100 mg/kg/dose p.o./qd × 10, TGI evaluation Day 11. The source says:
(§1) Patient-derived xenograft models (Champions TumorGraftTM; Champions Oncology, Inc., Hackensack, N.J.) were used. Champions TumorGraftsTM provide a highly focused, accelerated translational platform, which is based upon the implantation of primary human tumors in immune-deficient mice followed by propagation of the resulting low-passage Champions TumorGraftsTM in a manner that preserves the biological characteristics of the original human tumor. […] The TumorGraftsTM models allow a comparison of gene expression analysis of patients' cancer samples and Champions TumorGraftTM samples by microarray expression analysis. Large numbers (e.g., 30,000) of genes are analyzed. […] Female immunocompromised nu/nu mice (Harlan) between 6-9 weeks of age were housed on irradiated […]-enriched 1⁄8'' corncob bedding ([…]) in individual HEPA ventilated cages (Innocage® IVC, Innovive USA) and were kept on a 12-hour light-dark cycle at 68-74° F. (20-23° C.) and 30-70% humidity. Animals were fed water ad libitum (reverse osmosis, 2 ppm C12) and an irradiated Test rodent diet (Teklad 2919) consisting of 19% protein, 9% fat, and 4% fiber. Animals were implanted bilaterally in the flank region with tumor fragments harvested from tumored host animals, each implanted from a specific passage lot. Pre-study tumor volumes were recorded for each experiment beginning approximately one week prior to its estimated start date. When tumors reached approximately 125-250 mm^3, animals were matched by tumor volume into treatment and control groups, and dosing was initiated (Day 0). Animals in all studies were tagged and followed individually throughout the experiment. Initial dosing for standard agents began on Day 0; animals in all groups were dosed by weight (0.01 ml per gram; 10 ml/kg). Dose concentration(s), route(s) of administration and schedule(s) for each group are listed in the Experimental Design section, wherein “p.o./qd×10” indicates orally (by mouth) daily for 10 days. The experimental design of the human tumor graft model study is presented below in Table 4. “n” indicates the number of animals per group; “ROA” indicates route of administration of the test agent, i.e., the MDM2i drug. Beginning on Day 0, tumor dimensions were measured twice weekly by digital caliper and data including individual and mean estimated tumor volumes (Mean TV±SEM) were recorded for each group. Tumor volume was calculated using the formula (1): TV=width^2×length×0.52. At study completion, percent tumor growth inhibition (% TGI) values were calculated and reported for each treatment group (T) versus control (C) using initial (i) and final (f) tumor measurements and the formula (2): % TGI=1-Tf-Ti/Cf-C. The tumor growth inhibition (TGI) values on the scheduled dates closest to the last administration are summarized Table 5 below. In this example, the study duration was defined by the tumor size of the vehicle control. In some cases, for example, that of CTG-0213 in Table 5, required a longer time period for the tumor to reach a threshold size. As a result, the test animals treated with the MDM2i Compound B were also left for a longer time period, e.g., 40 days in the case of CTG-0213, without MDM2i treatment. […] Thus, the evaluation of TGI was set to be near the end of the treatment period, such as around Day 7-11 (around Day 9).

The subject of a further experiment is CTG-0201 Melanoma. Conditions: 100 mg/kg/dose p.o./qd × 10, TGI evaluation Day 10.
Excerpt: as §1

The subject of another experiment is CTG-0069 Colorectal. As to conditions: 100 mg/kg/dose p.o./qd × 10, TGI evaluation Day 11.
Excerpt: as §1

The next experiment relates to CTG-0093 Colorectal. As to conditions: 100 mg/kg/dose p.o./qd × 10, TGI evaluation Day 9.
Excerpt: as §1

The next experiment concerns CTG-0501 Melanoma. As to conditions: 100 mg/kg/dose p.o./qd × 10, TGI evaluation Day 11.
Excerpt: as §1

A further experiment relates to CTG-0500 Melanoma. Conditions: 100 mg/kg/dose p.o./qd × 10, TGI evaluation Day 7.
Excerpt: as §1

For another experiment, the system named is CTG-0282 Pancreatic. Conditions: 100 mg/kg/dose p.o./qd × 10, TGI evaluation Day 11.
Excerpt: as §1

In the next experiment the test system is CTG-0204 Melanoma. As to conditions: 100 mg/kg/dose p.o./qd × 10, TGI evaluation Day 10.
Excerpt: as §1

For the next experiment, the system named is CTG-0502 NSCLC. Conditions: 100 mg/kg/dose p.o./qd × 10, TGI evaluation Day 10.
Excerpt: as §1

The next experiment has as its system CTG-0213 Melanoma. Conditions: 100 mg/kg/dose p.o./qd × 10, TGI evaluation Day 7.
Excerpt: as §1

A further experiment concerns CTG-0292 Pancreatic. Conditions: 100 mg/kg/dose p.o./qd × 10, TGI evaluation Day 11.
Excerpt: as §1

A further experiment concerns CTG-0159 NSCLC. As to conditions: 100 mg/kg/dose p.o./qd × 10, TGI evaluation Day 11.
Excerpt: as §1

As to `CC1(C)CCC2(CC1)N[C@@H](C(=O)N[C@@H]1CC[C@@H](C(N)=O)OC1)[C@H](c1ccnc(Cl)c1F)[C@]21C(=O)Nc2cc(Cl)ccc21` [Compound B, (3′R,4′S,5′R)—N-[(3R,6S)-6-carbamoyltetrahydro-2H-pyran-3-yl]-6″-chloro-4′-(2-chloro-3-fluoropyridin-4-yl)-4,4-dimethyl-2″-oxo-1″,2″-dihydrodispiro[cyclohexane-1,2′-pyrrolidine-3′,3″-indole]-5′-carboxamide], the “% TGI” value was 98% in the experiment on CTG-0203 Melanoma; −10% in the experiment on CTG-0201 Melanoma; 19% in the experiment on CTG-0069 Colorectal; 53% with CTG-0093 Colorectal; 101% with CTG-0501 Melanoma; 104% in the experiment on CTG-0500 Melanoma. Also, the “% TGI” value was −30% in the experiment on CTG-0282 Pancreatic; 51% in the experiment with CTG-0204 Melanoma; 122% with CTG-0502 NSCLC; 87% in the experiment with CTG-0213 Melanoma; 54% with CTG-0292 Pancreatic; −13% in the experiment on CTG-0159 NSCLC.
